Assay [1] deals with MOR cKO mice and littermate controls. The assay can be described thus: Acute morphine antinociception in MOR cKO mice and littermate controls (von Frey, tail immersion, hotplate). It is filed as in vivo, mouse. The source says: (§1) To evaluate mechanical reflexive hypersensitivity (Weibel et al., 2013), we used a logarithmically increasing set of 8 von Frey filaments (Stoelting), ranging in gram force from 0.007 to 6.0 g. These were applied perpendicular to the plantar hindpaw with sufficient force to cause a slight bending of the filament. A positive response was characterized as a rapid withdrawal of the paw away from the stimulus filament within 4 s. Using the up-down statistical method (Solway et al., 2011), the 50% withdrawal mechanical threshold scores were calculated for each mouse and then averaged across the experimental groups.

In assay [2] the test system is wild-type control and global MOR KO mice. The assay can be described thus: Chronic morphine analgesic tolerance and OIH in wild-type control and global MOR KO mice (thermal tail immersion). It is filed as in vivo, mouse. On the procedure:
These treatments were given for 6 days (Days 2-7). […] (b) Untransformed, raw sensory threshold scores for same data presented in FIG. 1, panels a and b. n=6 for all groups. ★ P<0.05. Error bars are±SEM.
(§2) The tail-immersion test was used to evaluate thermal reflexive hypersensitivity (Woolf, 1984) with the temperature of the water bath being set to 48-52.5° C. The mouse was gently restrained and 2 cm of the tip of the tail was submerged in the water bath, and the latency (seconds) to reflexively withdraw the tail from the water was recorded as a positive nociceptive reflex response. A maximal cut-off of 45-60 s was set to prevent tissue damage.

The subject of a further assay is wild-type C57Bl/6J mice. The assay can be described thus: Morphine and MNB combination in wild-type mice: nociceptive reflexes, affective-motivational behaviors, tolerance and OIH. It is filed as in vivo, mouse. The method, then: (a) Temporal raster plot of nociception-induced sensory-reflexive and affective-motivational behaviors in an inescapable noxious environment (enclosed 52.5° C. hotplate). […] MNB doses 0.0-1.0 mg/kg, n=10; MNB 10 mg/kg, n=7 for reflexive tests and n=5 for affective-motivational tests. Best-fit lines were generated following non-linear regression analysis based on the % MPE for each mouse. One-way ANOVA+Bonferroni (left panels of b,d,f-k). ★ P<0.05. Error bars are mean±SEM. Overlaid points are individual animal scores. PID=post-injury day.
(b) Visual depiction of reflexive paw flinching behavior. (c) Latencies to the first paw flinch. (d) Number of paw flinches (see FIG. 17). (e) Visual depiction of hindpaw guarding behavior. (f) Latency to the first onset of hindpaw guarding. (g) Total duration of time spent engaged in hindpaw guarding. (h) Visual depiction of hindpaw attending. (i) Latency to the first onset of hindpaw attending. (j) Total duration of time spent engaging in hindpaw attending. (k) Visual depiction of escape jumping behavior. (1) Latency to the first jump. […] (m) Number of escape jumps. […] Error bars are±SEM.
Repeated Measures 2-way ANOVA+Bonferonni. ★ P<0.05. Error bars are mean±SEM.
as §1
(§3) To evaluate affective-motivational responses to an acute, focal thermal stimulus (Madisen et al., 2012), we applied either a single, unilateral 50 μl drop of 55° C. water or acetone (evaporative cooling) to the left hindpaw, and the duration of attending behavior was collected for up to 30 seconds after the stimulation. Only one stimulation per thermal drop was applied on a given testing session, in order to prevent behavioral sensitization that can result from multiple noxious stimulations and then averaging those responses.
To evaluate affective-motivational responses to a sustained, inescapable noxious thermal stimulus, mice were placed on a 52.5° C. hot plate for 45 seconds. A high-speed camera (on the side, level with the hot plate floor) was used to capture the movement, speed, velocity, and detailed reflexive and affective-motivational behaviors of the mice, as described above.
As opposed to the standard hot-plate test, all behaviors such as reflexive paw flinching (rapid flicking of the limb), paw attending (directed licking of the limb), paw guarding (intentional lift protection of the limb), and escape jumping for the duration of the trial were scored. This allowed the analysis of the high-speed videos, blinded to plate temperature or treatment, for the total time spent engaging in affective-motivational behaviors and the number of nociceptive reflexives, as opposed to the traditional metric of merely determining the latency to the first reflexive response.

For assay [3], the system named is mice with chronic constriction injury (CCI) of the sciatic nerve. The conditions noted are these: CCI + morphine alone 10 mg/kg.
Description: (§4) Error bars are mean±SEM. Overlaid points are individual animal scores. PID=post-injury day.
as §1, §3

The test system of assay [4] is mice with tibia fracture and bone pinning. The conditions noted are these: morphine alone 10 mg/kg.
Description: as §4, §4, §1, §3

Assay [5] relates to MOR cKO mice and littermate controls. The assay can be described thus: 10 day chronic morphine schedule: antinociceptive tolerance and OIH in MOR cKO mice and littermate controls. It is filed as in vivo, mouse. The conditions noted are these: 10 mg/kg subcutaneous once daily for 10 days. On the procedure: Nociceptive behavior (pre-morphine BL timepoints only): von Frey: F1, 30=9.863, P=0.004; tail immersion: F1, 30=0.7311; hotplate: F1, 30=[…]. Antinociception (post-morphine+30 min timepoints only): von Frey: F1, 30=4.812, P=0.0367; tail immersion: F1, 30=19.74, P<0.0001; hotplate: F1, 30=17.23, P=0.0004. […] Control, n=19; MOR cKO, n=13. BL=baseline. […] Repeated Measures Two-way ANOVA+Bonferroni (a,d,g and left panels of b,c,e,f,h,i). ★ P<0.05. Error bars are mean±SEM. Overlaid points are individual animal scores. BL=baseline.
as §2
The hotplate test was used to evaluate thermal-induced affective-motivational responses (Woolf, 1984) with the plate temperature being set to 50-52.5° C.). Mice were place on the plate and the latency (seconds) to the first appearance of an attending response (lick and/or bite at one or both hindpaws) was recorded as a positive affective-motivational response. A maximal cut-off of 45 s was set to prevent tissue damage.
Next the development of morphine antinociceptive tolerance and OIH in MOR cKO mice was evaluated. […] We measured thermal and mechanical nociceptive thresholds, and affective-motivational responses to noxious thermal stimuli prior to, and 30 min after, each daily injection, to evaluate OIH and tolerance, respectively (FIG. 3, panels a, d, g).

Where [6] appears, read: subcutaneous morphine 10 mg/kg, acute.

Turning to `CN1CC[C@]23c4c5ccc(O)c4O[C@H]2[C@@H](O)C=C[C@H]3[C@H]1C5.O=S(=O)(O)O` [morphine, Morphine sulfate], the “reflexive or affective-motivational antinociception” value in assay [1] (MOR cKO mice, acute intrathecal 1 μg) is reported as “did not produce significant reflexive or affective-motivational antinociception”. In addition, the “reflexive and affective-motivational antinociception” value in assay [1] (MOR cKO mice, subcutaneous 10 mg/kg) was “maximal reflexive and affective-motivational antinociception”. In addition, the antinociception result in assay [1] (control mice, acute intrathecal 1 μg) is recorded as “robust antinociception”. The OIH result was “no OIH” in assay [2] (global MOR KO mice, twice daily escalating 10 to 40 mg/kg schedule) and “No indications of OIH” in assay [3]. Moreover, in assay [2] (wild-type mice, chronic morphine, fixed once daily 10 mg/kg or twice daily escalating 10 to 40 mg/kg, subcutaneous), the “analgesic tolerance and OIH” value is “significant tolerance and OIH”. Also, in the assay with wild-type C57Bl/6J mice (morphine alone 10 mg/kg once daily for 7 days, Day 7 compared to Day 1), the “antinociceptive tolerance and OIH, reflexive and affective-motivational measures” value is “robust antinociceptive tolerance and OIH”. For the same molecule, the affective-motivational behaviors result in the assay with wild-type C57Bl/6J mice (setting [6]) was “effective at alleviating affective-motivational behaviors”. Also, the nociceptive reflexes result in the assay on wild-type C57Bl/6J mice (setting [6]) is listed as “significantly reduce nociceptive reflexes”. Besides, in assay [4] (after 7 days of chronic treatment), the “reduction of nociceptive or affective-motivational orthotrauma pain after chronic treatment” value was “no longer effective”. For the same molecule, the “antinociception, acute” value in assay [4] (first administration) is recorded as “acutely produced antinociception”. For the same molecule, the “OIH for thermal and mechanical stimuli” value in assay [5] (MOR cKO mice vs controls) was “significantly less OIH than controls”. For the same molecule, the “morphine antinociception over chronic treatment (tolerance)” value in assay [5] (MOR cKO mice) was “retained near full antinociceptive efficacy”; in assay [5] (littermate controls) it was “progressively diminished”.

(Values after US20180214442A1, “METHODS FOR ATTENUATING OR PREVENTING MU(μ)-OPIOID RECEPTOR MEDIATED TOLERANCE AND OPIOID-INDUCED […]” (The Board of Trustees of the Leland Stanford Junior …, priority 2017, published 2018).)
